Test results published in US12319672B2, “Alpha-D-galactopyranoside derivatives” (Idorsia Pharmaceuticals Ltd, priority 2019, dated 2025).
pIC50: −log10 of the molar value.

Key:
human Gal-1 (hGal-1) = assay: Competitive binding assay: binding of biotinylated hGal-1 to microplate-adsorbed asialofetuin (ASF); details: Activities on hGal-1; mean values of several measurements
Outline: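 Biotin-hGal-3/hGal-1 300-1000 ng/mL + cpd (DMSO dilutions) on ASF-coated plate, 3 h 4° C; wash; SA-HRP 80 ng/mL 1 h 4° C; wash; ABTS. IC50 = mean of several runs. hGal-1 preferably Cys→Ser (all six) mutant.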

human Gal-3 (hGal-3) = human Gal-3 (hGal-3) (Homo sapiens (Human), UniProt P17931); assay: Competitive binding assay: binding of biotinylated hGal-3 to microplate-adsorbed asialofetuin (ASF); details: Activity on hGal-3; mean values of several measurements
Outline: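 Compounds diluted in DMSO competed with biotinylated hGal-3 or hGal-1 (300-1000 ng/mL) for binding to plate-adsorbed asialofetuin for 3 h at 4° C. Bound galectin was detected with streptavidin-peroxidase (80 ng/mL, 1 h, 4° C) and ABTS substrate; IC50 reported as mean of several measurements.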

Chain of human Gal-1 (hGal-1) (P09382 2-135 limits assumed): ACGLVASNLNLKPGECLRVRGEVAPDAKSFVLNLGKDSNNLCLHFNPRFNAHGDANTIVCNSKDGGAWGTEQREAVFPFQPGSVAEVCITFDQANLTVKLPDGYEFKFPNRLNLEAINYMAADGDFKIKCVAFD
Chain of human Gal-3 (hGal-3) (P17931 whole entry): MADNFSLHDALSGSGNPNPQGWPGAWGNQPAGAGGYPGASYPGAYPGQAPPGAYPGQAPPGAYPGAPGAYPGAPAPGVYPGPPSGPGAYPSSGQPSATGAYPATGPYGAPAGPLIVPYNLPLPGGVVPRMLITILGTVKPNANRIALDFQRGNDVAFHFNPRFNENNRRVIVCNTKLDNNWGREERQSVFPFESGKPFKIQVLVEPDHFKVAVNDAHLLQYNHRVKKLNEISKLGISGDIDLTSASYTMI

Row | Compound | pIC50 (human Gal-1 (hGal-1)) | pIC50 (human Gal-3 (hGal-3))
1 | CO[C@@H]1[C@@H](n2cc(-c3cc(F)c(F)c(F)c3)nn2)[C@@H](O)[C@@H](CO)O[C@@H]1Cn1cc(C2CCCCC2)nn1 [Example 4.29, (2R,3R,4S,5R,6R)-6-((4-cyclohexyl-1H-1,2,3-triazol-1-yl)methyl)-2-(hydroxymethyl)-5-methoxy-4-(4-(3,4,5-trifluorophenyl)-1H-1,2,3-triazol-1-yl)tetrahydro-2H-pyran-3-ol] | 5.56 | 6.51
2 | CO[C@@H]1[C@@H](n2cc(-c3cc(F)c(F)c(F)c3)nn2)[C@@H](O)[C@@H](CO)O[C@@H]1Cc1cn(C2CCCCC2)nn1 [Example 4.30, (2R,3R,4S,5R,6R)-6-((1-cyclohexyl-1H-1,2,3-triazol-4-yl)methyl)-2-(hydroxymethyl)-5-methoxy-4-(4-(3,4,5-trifluorophenyl)-1H-1,2,3-triazol-1-yl)tetrahydro-2H-pyran-3-ol] | 5.53 | 7.07
3 | CO[C@@H]1[C@@H](n2cc(-c3cc(F)c(F)c(F)c3)nn2)[C@@H](O)[C@@H](CO)O[C@@H]1Cc1cn(C2CCS(=O)(=NC(C)C)CC2)nn1 (stereo partly drawn) [Example 4.31, 4-(4-(((2R,3R,4S,5R,6R)-5-hydroxy-6-(hydroxymethyl)-3-methoxy-4-(4-(3,4,5-trifluorophenyl)-1H-1,2,3-triazol-1-yl)tetrahydro-2H-pyran-2-yl)methyl)-1H-1,2,3-triazol-1-yl)-1-(isopropylimino)hexahydro-1l6-thiopyran 1-oxide] | 6.49 | 7.57
4 | CO[C@@H]1[C@@H](n2cc(-c3cc(F)c(F)c(F)c3)nn2)[C@@H](O)[C@@H](CO)O[C@@H]1Cn1cc(C2CCN(C(=O)NC3CC3)CC2)nn1 [Example 4.32, N-cyclopropyl-4-(1-(((2R,3R,4S,5R,6R)-5-hydroxy-6-(hydroxymethyl)-3-methoxy-4-(4-(3,4,5-trifluorophenyl)-1H-1,2,3-triazol-1-yl)tetrahydro-2H-pyran-2-yl)methyl)-1H-1,2,3-triazol-4-yl)piperidine-1-carboxamide] | 6.05 | 7.19
5 | CO[C@@H]1[C@@H](n2cc(-c3cc(F)c(F)c(F)c3)nn2)[C@@H](O)[C@@H](CO)O[C@@H]1Cc1cn(C2CCS(=O)(=NC3CCC(F)(F)CC3)CC2)nn1 (stereo partly drawn) [Example 4.33, 1-((4,4-difluorocyclohexyl)imino)-4-(4-(((2R,3R,4S,5R,6R)-5-hydroxy-6-(hydroxymethyl)-3-methoxy-4-(4-(3,4,5-trifluorophenyl)-1H-1,2,3-triazol-1-yl)tetrahydro-2H-pyran-2-yl)methyl)-1H-1,2,3-triazol-1-yl)hexahydro-1l6-thiopyran 1-oxide] | 6.66 | 7.15
6 | CO[C@@H]1[C@@H](n2cc(-c3ccc(Cl)c(F)c3)nn2)[C@@H](O)[C@@H](CO)O[C@@H]1Cc1cn(C2CCN(C(=O)OCc3ccccc3)CC2)nn1 [Example 4.34, benzyl 4-(4-(((2R,3R,4S,5R,6R)-4-(4-(4-chloro-3-fluorophenyl)-1H-1,2,3-triazol-1-yl)-5-hydroxy-6-(hydroxymethyl)-3-methoxytetrahydro-2H-pyran-2-yl)methyl)-1H-1,2,3-triazol-1-yl)piperidine-1-carboxylate] | 6.37 | 7.60
7 | CO[C@@H]1[C@@H](n2cc(-c3cccc(F)c3)nn2)[C@@H](O)[C@@H](CO)O[C@@H]1Cc1cn(C2CCN(C(=O)OCc3ccccc3)CC2)nn1 [Example 4.35, benzyl 4-(4-(((2R,3R,4S,5R,6R)-4-(4-(3-fluorophenyl)-1H-1,2,3-triazol-1-yl)-5-hydroxy-6-(hydroxymethyl)-3-methoxytetrahydro-2H-pyran-2-yl)methyl)-1H-1,2,3-triazol-1-yl)piperidine-1-carboxylate] | 6.82 | 7.40
8 | CO[C@@H]1[C@@H](n2cc(-c3ccc(Br)c(F)c3)nn2)[C@@H](O)[C@@H](CO)O[C@@H]1Cc1cn(C2CCN(C(=O)OCc3ccccc3)CC2)nn1 [Example 4.36, benzyl 4-(4-(((2R,3R,4S,5R,6R)-4-(4-(4-bromo-3-fluorophenyl)-1H-1,2,3-triazol-1-yl)-5-hydroxy-6-(hydroxymethyl)-3-methoxytetrahydro-2H-pyran-2-yl)methyl)-1H-1,2,3-triazol-1-yl)piperidine-1-carboxylate] | 6.24 | 7.72
9 | CO[C@@H]1[C@@H](n2cc(-c3cc(F)cc(F)c3)nn2)[C@@H](O)[C@@H](CO)O[C@@H]1Cc1cn(C2CCN(C(=O)OCc3ccccc3)CC2)nn1 [Example 4.37, benzyl 4-(4-(((2R,3R,4S,5R,6R)-4-(4-(3,5-difluorophenyl)-1H-1,2,3-triazol-1-yl)-5-hydroxy-6-(hydroxymethyl)-3-methoxytetrahydro-2H-pyran-2-yl)methyl)-1H-1,2,3-triazol-1-yl)piperidine-1-carboxylate] | 6.77 | 7.82
10 | CO[C@@H]1[C@@H](n2cc(-c3cc(F)c(F)c(F)c3)nn2)[C@@H](O)[C@@H](CO)O[C@@H]1Cn1cc(C(C)(C)C)nn1 [Example 4.38, (2R,3R,4S,5R,6R)-6-((4-(tert-butyl)-1H-1,2,3-triazol-1-yl)methyl)-2-(hydroxymethyl)-5-methoxy-4-(4-(3,4,5-trifluorophenyl)-1H-1,2,3-triazol-1-yl)tetrahydro-2H-pyran-3-ol] | 5.74 | 7.03
11 | CCOC(=O)N1CCC(c2cn(C[C@H]3O[C@H](CO)[C@H](O)[C@H](n4cc(-c5cc(F)c(F)c(F)c5)nn4)[C@H]3OC)nn2)CC1 [Example 4.39, ethyl 4-(1-(((2R,3R,4S,5R,6R)-5-hydroxy-6-(hydroxymethyl)-3-methoxy-4-(4-(3,4,5-trifluorophenyl)-1H-1,2,3-triazol-1-yl)tetrahydro-2H-pyran-2-yl)methyl)-1H-1,2,3-triazol-4-yl)piperidine-1-carboxylate] | 6.28 | 7.36
12 | CO[C@@H]1[C@@H](n2cc(-c3cc(F)c(F)c(F)c3)nn2)[C@@H](O)[C@@H](CO)O[C@@H]1Cn1cc(C2CCOCC2)nn1 [Example 4.40, (2R,3R,4S,5R,6R)-2-(hydroxymethyl)-5-methoxy-6-((4-(tetrahydro-2H-pyran-4-yl)-1H-1,2,3-triazol-1-yl)methyl)-4-(4-(3,4,5-trifluorophenyl)-1H-1,2,3-triazol-1-yl)tetrahydro-2H-pyran-3-ol] | 5.41 | 6.80
13 | CO[C@@H]1[C@@H](n2cc(-c3cc(F)c(F)c(F)c3)nn2)[C@@H](O)[C@@H](CO)O[C@@H]1Cn1cc(C2(O)CCCC2)nn1 [Example 4.41, (2R,3R,4S,5R,6R)-6-((4-(1-hydroxycyclopentyl)-1H-1,2,3-triazol-1-yl)methyl)-2-(hydroxymethyl)-5-methoxy-4-(4-(3,4,5-trifluorophenyl)-1H-1,2,3-triazol-1-yl)tetrahydro-2H-pyran-3-ol] | 5.60 | 6.47
14 | CO[C@@H]1[C@@H](n2cc(-c3cc(F)c(F)c(F)c3)nn2)[C@@H](O)[C@@H](CO)O[C@@H]1Cn1cc(C2=CCCC2)nn1 [Example 4.42, (2R,3R,4S,5R,6R)-6-((4-(cyclopent-1-en-1-yl)-1H-1,2,3-triazol-1-yl)methyl)-2-(hydroxymethyl)-5-methoxy-4-(4-(3,4,5-trifluorophenyl)-1H-1,2,3-triazol-1-yl)tetrahydro-2H-pyran-3-ol] | 5.58 | 6.10
15 | CO[C@@H]1[C@@H](n2cc(-c3cc(F)c(F)c(F)c3)nn2)[C@@H](O)[C@@H](CO)O[C@@H]1Cn1cc(C2(O)CCC2)nn1 [Example 4.43, (2R,3R,4S,5R,6R)-6-((4-(1-hydroxycyclobutyl)-1H-1,2,3-triazol-1-yl)methyl)-2-(hydroxymethyl)-5-methoxy-4-(4-(3,4,5-trifluorophenyl)-1H-1,2,3-triazol-1-yl)tetrahydro-2H-pyran-3-ol] | 5.35 | 6.52
16 | CO[C@@H]1[C@@H](n2cc(-c3cc(F)c(F)c(F)c3)nn2)[C@@H](O)[C@@H](CO)O[C@@H]1Cn1cc(C(C)(C)O)nn1 [Example 4.44, (2R,3R,4S,5R,6R)-2-(hydroxymethyl)-6-((4-(2-hydroxypropan-2-yl)-1H-1,2,3-triazol-1-yl)methyl)-5-methoxy-4-(4-(3,4,5-trifluorophenyl)-1H-1,2,3-triazol-1-yl)tetrahydro-2H-pyran-3-ol] | 4.82 | 6.62
17 | CO[C@@H]1[C@@H](n2cc(-c3cc(F)c(F)c(F)c3)nn2)[C@@H](O)[C@@H](CO)O[C@@H]1Cc1cn(C(C)(C)C)nn1 [Example 4.45, (2R,3R,4S,5R,6R)-6-((1-(tert-butyl)-1H-1,2,3-triazol-4-yl)methyl)-2-(hydroxymethyl)-5-methoxy-4-(4-(3,4,5-trifluorophenyl)-1H-1,2,3-triazol-1-yl)tetrahydro-2H-pyran-3-ol] | 5.95 | 7.07
18 | CO[C@@H]1[C@@H](n2cc(-c3ccc(F)c(F)c3F)nn2)[C@@H](O)[C@@H](CO)O[C@@H]1Cc1cn(C(C)(C)C)nn1 [Example 4.46, (2R,3R,4S,5R,6R)-6-((1-(tert-butyl)-1H-1,2,3-triazol-4-yl)methyl)-2-(hydroxymethyl)-5-methoxy-4-(4-(2,3,4-trifluorophenyl)-1H-1,2,3-triazol-1-yl)tetrahydro-2H-pyran-3-ol] | 6.51 | 7.35
19 | CO[C@@H]1[C@@H](n2cc(-c3cc(F)c(F)c(F)c3)nn2)[C@@H](O)[C@@H](CO)O[C@@H]1Cn1cc(C2(O)CCCCC2)nn1 [Example 4.47, (2R,3R,4S,5R,6R)-6-((4-(1-hydroxycyclohexyl)-1H-1,2,3-triazol-1-yl)methyl)-2-(hydroxymethyl)-5-methoxy-4-(4-(3,4,5-trifluorophenyl)-1H-1,2,3-triazol-1-yl)tetrahydro-2H-pyran-3-ol] | 5.51 | 6.48
